Assay results taken from PMC9697025, “Discovery of N-Containing (-)-Borneol Esters as Respiratory Syncytial Virus Fusion Inhibitors” (Pharmaceuticals, 2022).

Tests used:
RSV A strain A2 = assay: In vitro antiviral assay against RSV A strain A2 in HEp-2 cells (ELISA, virus titer); type: cell-based, respiratory syncytial virus; details: for IC50: human respiratory syncytial virus, HEp-2, 50% decrease in virus replication, RSV A strain A2 in HEp-2 cells, mean ± SD; for SI: selectivity index, CC50/IC50 ratio, RSV A2 / HEp-2
[1] = MTT cytotoxicity assay with non-infected HEp2 cells; details: human

| SMILES | IC50 (RSV A strain A2) [µM] | SI (RSV A strain A2) | CC50 at 24 h [1] [µM] |
| --- | --- | --- | --- |
| CCN1CCN(CCCC(=O)O[C@@H]2C[C@@H]3CC[C@@]2(C)C3(C)C)CC1 [Compound 10c] | 9.8 ± 2.5 | 21 | 208 ± 21.4 |
| CC1(C)[C@H]2CC[C@]1(C)[C@H](OC(=O)CCCN1CCN(Cc3ccccc3)CC1)C2 [Compound 11c] | 25.1 ± 3.5 | 3 | 82.8 ± 7.9 |
| CCN(CC)CCCC(=O)O[C@@H]1C[C@@H]2CC[C@@]1(C)C2(C)C [Compound 4c] | 30.5 ± 2.9 | 5 | 152 ± 12.1 |
| CC1CCN(CC(=O)O[C@@H]2C[C@@H]3CC[C@@]2(C)C3(C)C)CC1 [Compound 7a] | 109 ± 10.7 | 4 | 399 ± 4.8 |
| CC1(C)[C@H]2CC[C@]1(C)[C@H](OC(=O)CN1CCCCC1)C2 [Compound 6a] | 41.9 ± 3.1 | 3 | 129 ± 9.8 |
| CC1(C)[C@H]2CC[C@]1(C)[C@H](OC(=O)CN1CCN(Cc3ccccc3)CC1)C2 [Compound 11a] | 21.6 ± 2.6 | 2 | 51.3 ± 4.9 |
| CC1(C)[C@H]2CC[C@]1(C)[C@H](OC(=O)CN1CCC(Cc3ccccc3)CC1)C2 [Compound 13a, (1S,2R,4S)-1,7,7-trimethylbicyclo [2.2.1]heptan-2-yl 2-(4-benzylpiperidin-1-yl)acetate] | 21.6 ± 1.8 | 5 | 116 ± 13.4 |
| CC1(C)[C@H]2CC[C@]1(C)[C@H](OC(=O)CN1CCN(c3ccccc3)CC1)C2 [Compound 14a, (1S,2R,4S)-1,7,7-Trimethylbicyclo [2.2.1]heptan-2-yl 2-(4-phenylpiperazin-1-yl)acetate] | 4.6 ± 1.1 | 6 | 26.4 ± 3.8 |
| CC1CCN(CCCC(=O)O[C@@H]2C[C@@H]3CC[C@@]2(C)C3(C)C)CC1 [Compound 7c] | 19.9 ± 2.3 | 3 | 59.1 ± 4.8 |
| CCN1CCN(CCC(=O)O[C@@H]2C[C@@H]3CC[C@@]2(C)C3(C)C)CC1 [Compound 10b] | 5.9 ± 1.4 | 20 | 117 ± 11.7 |
| CC1(C)[C@H]2CC[C@]1(C)[C@H](OC(=O)CCN1CCCCCC1)C2 [Compound 8b] | 97.6 ± 8.9 | 3 | 345 ± 24.6 |
| CCN(CC)CCC(=O)O[C@@H]1C[C@@H]2CC[C@@]1(C)C2(C)C [Compound 4b] | 99.5 ± 8.7 | 4 | 391 ± 23.1 |
| CC1(C)[C@H]2CC[C@]1(C)[C@H](OC(=O)CCN1CCN(c3ccccc3F)CC1)C2 [Compound 15b, (1S,2R,4S)-1,7,7-trimethylbicyclo [2.2.1]heptan-2-yl 3-(4-(2-fluorophenyl)piperazin-1-yl)propanoate] | 8.2 ± 0.8 | 2 | 20.1 ± 12.1 |
| CC1(C)[C@H]2CC[C@]1(C)[C@H](OC(=O)CCCN1CCC(Cc3ccccc3)CC1)C2 [Compound 13c, (1S,2R,4S)-1,7,7-trimethylbicyclo [2.2.1]heptan-2-yl 4-(4-benzylpiperidin-1-yl)butanoate] | 7.3 ± 0.6 | 5 | 40.2 ± 5.1 |
| CN1CCN(CCC(=O)O[C@@H]2C[C@@H]3CC[C@@]2(C)C3(C)C)CC1 [Compound 9b] | 17.2 ± 1.9 | 10 | 169 ± 12.1 |
| CC1(C)[C@H]2CC[C@]1(C)[C@H](OC(=O)CCN1CCC(Cc3ccccc3)CC1)C2 [Compound 13b, (1S,2R,4S)-1,7,7-trimethylbicyclo [2.2.1]heptan-2-yl 3-(4-benzylpiperidin-1-yl)propanoate] | 14.9 ± 1 | 2 | 25.5 ± 11.4 |

| SMILES | IC50 (RSV A strain A2) [µM] | SI (RSV A strain A2) | CC50 at 24 h [1] [µM] |
| --- | --- | --- | --- |
| CC1(C)[C@H]2CC[C@]1(C)[C@H](OC(=O)CCCN1CCCCC1)C2 [Compound 6c] | 39 ± 4.1 | 3 | 117 ± 11.1 |
| CC1CCN(CCC(=O)O[C@@H]2C[C@@H]3CC[C@@]2(C)C3(C)C)CC1 [Compound 7b] | 6.2 ± 2.1 | 26 | 159 ± 17.1 |
| CN(C)CCCC(=O)O[C@@H]1C[C@@H]2CC[C@@]1(C)C2(C)C [Compound 3c] | 23.9 ± 3.7 | 10 | 228 ± 23.5 |
| CC1(C)[C@H]2CC[C@]1(C)[C@H](OC(=O)CCN1CCSCC1)C2 [Compound 12b, (1S,2R,4S)-1,7,7-trimethylbicyclo [2.2.1]heptan-2-yl 3-thiomorpholinopropanoate] | 96.3 ± 3.5 | 1 | 86 ± 7.4 |
| CC1(C)[C@H]2CC[C@]1(C)[C@H](OC(=O)CCN1CCN(Cc3ccccc3)CC1)C2 [Compound 11b] | 46.8 ± 7.2 | 1 | 49.4 ± 5.6 |
| CC1(C)[C@H]2CC[C@]1(C)[C@H](OC(=O)CCCN1CCN(c3ccccc3)CC1)C2 [Compound 14c, (1S,2R,4S)-1,7,7-trimethylbicyclo [2.2.1]heptan-2-yl 4-(4-phenylpiperazin-1-yl)butanoate] | 12 ± 2 | 2 | 23.9 ± 8.7 |
| CN(C)CC(=O)O[C@@H]1C[C@@H]2CC[C@@]1(C)C2(C)C [Compound 3a] | 134 ± 19.5 | 4 | 497 ± 53.2 |
| CCN(CC)CC(=O)O[C@@H]1C[C@@H]2CC[C@@]1(C)C2(C)C [Compound 4a] | 355 ± 51.1 | 2 | 669 ± 56.4 |
| CC1(C)[C@H]2CC[C@]1(C)[C@H](OC(=O)CCCN1CCCCCC1)C2 [Compound 8c] | 34.2 ± 1.1 | 5 | 159 ± 12.4 |
| CCN1CCN(CC(=O)O[C@@H]2C[C@@H]3CC[C@@]2(C)C3(C)C)CC1 [Compound 10a] | 57.7 ± 2.2 | 4 | 217 ± 18.9 |
| CN1CCN(CCCC(=O)O[C@@H]2C[C@@H]3CC[C@@]2(C)C3(C)C)CC1 [Compound 9c] | 5.1 ± 0.8 | 39 | 198 ± 13.6 |
| CC1(C)[C@H]2CC[C@]1(C)[C@H](OC(=O)CN1CCCCCC1)C2 [Compound 8a] | 61.3 ± 3.2 | 1 | 85.2 ± 5.6 |
| CC1(C)[C@H]2CC[C@]1(C)[C@H](OC(=O)CN1CCSCC1)C2 [Compound 12a, (1S,2R,4S)-1,7,7-Trimethylbicyclo [2.2.1]heptan-2-yl 2-thiomorpholinoacetate] | 69.6 ± 16.2 | 2 | 126 ± 10.5 |
| CC1(C)[C@H]2CC[C@]1(C)[C@H](OC(=O)CN1CCN(c3ccccc3F)CC1)C2 [Compound 15a, (1S,2R,4S)-1,7,7-trimethylbicyclo [2.2.1]heptan-2-yl 2-(4-(2-fluorophenyl)piperazin-1-yl)acetate] | 2.7 ± 0.7 | 10 | 27.5 ± 3.8 |
| CC1(C)[C@H]2CC[C@]1(C)[C@H](OC(=O)CCCN1CCN(c3ccccc3F)CC1)C2 [Compound 15c, (1S,2R,4S)-1,7,7-trimethylbicyclo [2.2.1]heptan-2-yl 4-(4-(2-fluorophenyl)piperazin-1-yl)butanoate] | 14.7 ± 2.1 | 2 | 27.8 ± 7.4 |
| CC1(C)[C@H]2CC[C@]1(C)[C@H](OC(=O)CCCN1CCSCC1)C2 [Compound 12c, (1S,2R,4S)-1,7,7-trimethylbicyclo [2.2.1]heptan-2-yl 4-thiomorpholinobutanoate] | 75.3 ± 7.9 | 1 | 56.5 ± 3.8 |
